Assay results from patent US20240270821A1, “GIP/GLP1/GCG TRI-RECEPTOR AGONISTS AND USES THEREOF” (priority 2023, published 2024).
Like-named read-outs stand apart in the source and are kept apart here. Starred links: 1 amine or outer side, 2 acyl side, 3 side chain; linkers in the order of their positions; H or OH if unused. Non-standard residues stand in square brackets, D forms with d. Residues, ends and D or L forms follow the SMILES beside them. Groups on a side chain read outwards from the residue. No end group written: not given here. *: point of attachment. C20 diacid = O=C(O)CCCCCCCCCCCCCCCCCCC(=O)*; C18 diacid = O=C(O)CCCCCCCCCCCCCCCCC(=O)*; αMePhe(2-F) = C[C@](N)(Cc1ccccc1F)C(=O)O; γGlu = O=C(O)[C@H](CCC(=O)[*:2])N[*:1]; αMe4Pal = C[C@](N)(Cc1ccncc1)C(=O)O; αMeY = C[C@](N)(Cc1ccc(O)cc1)C(=O)O; αMeF = C[C@](N)(Cc1ccccc1)C(=O)O; 4Pal = N[C@@H](Cc1ccncc1)C(=O)O; αMeL = CC(C)C[C@](C)(N)C(=O)O; αMeS = C[C@](N)(CO)C(=O)O; Orn = NCCC[C@H](N)C(=O)O; Dab = NCC[C@H](N)C(=O)O; AEEA = NCCOCCOCC(=O)O; Aib = CC(C)(N)C(=O)O

Tests used:
Assay type in all cases: cell-based
hGIPR [1] = molecular target: T1, hGIPR (Homo sapiens, UniProt P48546); experiment: Functional cAMP activity in the presence of 1% HSA; conditions: read-out: cAMP Rel EC50, hGIPR
T1 sequence (P48546 22-466): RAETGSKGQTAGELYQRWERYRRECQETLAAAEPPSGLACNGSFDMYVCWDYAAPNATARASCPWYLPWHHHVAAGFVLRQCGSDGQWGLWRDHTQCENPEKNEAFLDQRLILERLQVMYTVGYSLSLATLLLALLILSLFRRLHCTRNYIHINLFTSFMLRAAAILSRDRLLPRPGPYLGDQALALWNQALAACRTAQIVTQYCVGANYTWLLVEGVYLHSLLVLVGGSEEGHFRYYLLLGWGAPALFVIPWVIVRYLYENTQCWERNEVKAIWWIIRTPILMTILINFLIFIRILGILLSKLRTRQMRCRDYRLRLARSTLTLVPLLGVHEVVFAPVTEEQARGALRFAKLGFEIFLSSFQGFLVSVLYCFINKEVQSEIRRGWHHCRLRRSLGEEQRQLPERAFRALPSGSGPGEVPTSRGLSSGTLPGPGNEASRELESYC

hGLP-1R [2] = molecular target: T2, hGLP-1R (Homo sapiens, UniProt P43220); experiment: Functional cAMP activity in the presence of 1% HSA; conditions: read-out: cAMP Rel EC50, hGLP-1R
T2 sequence (P43220 24-463): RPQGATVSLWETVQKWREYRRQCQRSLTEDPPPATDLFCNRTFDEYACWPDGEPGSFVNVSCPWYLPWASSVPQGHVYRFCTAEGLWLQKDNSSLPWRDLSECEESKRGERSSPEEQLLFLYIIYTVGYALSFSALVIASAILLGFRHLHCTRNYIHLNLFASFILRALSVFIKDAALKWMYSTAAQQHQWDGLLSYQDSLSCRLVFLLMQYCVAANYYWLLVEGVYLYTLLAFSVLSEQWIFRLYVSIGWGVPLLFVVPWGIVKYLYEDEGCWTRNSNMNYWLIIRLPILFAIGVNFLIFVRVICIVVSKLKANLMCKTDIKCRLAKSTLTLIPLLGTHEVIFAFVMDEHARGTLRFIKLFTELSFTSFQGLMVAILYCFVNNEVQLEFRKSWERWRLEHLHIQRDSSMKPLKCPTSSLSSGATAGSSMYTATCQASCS

human GcgR = human GcgR (Homo sapiens, UniProt P47871); experiment: Functional cAMP activity in the presence of 1% HSA; conditions: read-out: cAMP Rel EC50, hGcgR
Sequence of human GcgR (P47871 26-477): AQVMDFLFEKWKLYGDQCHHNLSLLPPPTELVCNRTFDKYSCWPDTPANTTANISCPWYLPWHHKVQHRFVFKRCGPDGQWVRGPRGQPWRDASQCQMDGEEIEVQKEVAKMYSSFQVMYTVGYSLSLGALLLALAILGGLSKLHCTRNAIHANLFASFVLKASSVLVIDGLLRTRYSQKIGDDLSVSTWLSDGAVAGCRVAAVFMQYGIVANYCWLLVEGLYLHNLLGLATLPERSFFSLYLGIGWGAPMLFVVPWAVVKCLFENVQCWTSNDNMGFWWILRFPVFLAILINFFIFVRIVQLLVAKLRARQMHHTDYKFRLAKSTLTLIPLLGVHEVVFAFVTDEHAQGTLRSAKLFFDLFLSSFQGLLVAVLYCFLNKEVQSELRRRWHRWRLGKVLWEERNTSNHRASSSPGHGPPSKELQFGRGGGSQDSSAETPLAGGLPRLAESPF

hGIPR [3] = molecular target: T1, hGIPR; experiment: Functional cAMP activation in the presence of 0.1% casein (no HSA); conditions: read-out: Relative cAMP EC50, hGIPR;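 as to Relative cAMP EC50, hGIPR: intracellular cAMP rise after 30 min at 37 °C read by HTRF against a standard curve, scaled between buffer alone (0%) and top control ligand concentration (100%), four-parameter fit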;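 as to Relative cAMP EC50, hGLP-1R: intracellular cAMP rise after 30 min at 37 °C read by HTRF, normalized between buffer only (0%) and maximal control ligand (100%), four-parameter variable-slope fit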;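 as to Relative cAMP EC50, hGcgR: intracellular cAMP rise after 30 min at 37 °C, read by HTRF against a cAMP standard curve, scaled from buffer only (0%) to maximal control ligand response (100%)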
hGLP-1R [4] = molecular target: T2, hGLP-1R; experiment: as above; conditions: read-out: Relative cAMP EC50, hGLP-1R
hGcgR = hGcgR (Homo sapiens, UniProt P47871); experiment: as above; conditions: read-out: Relative cAMP EC50, hGcgR;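 also: intracellular cAMP rise after 30 min at 37 °C, read by HTRF against a cAMP standard curve, scaled from buffer only (0%) to maximal control ligand response (100%)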
Sequence of hGcgR (P47871 26-477): as above

[5] = in the presence of 0.1% casein (no HSA), geometric mean
[6] = 0.1% casein, no HSA, geometric mean

| Compound | EC50 (hGIPR [1]) [nM] | EC50 (hGLP-1R [2]) [nM] | EC50 (human GcgR) [nM] | EC50 (hGIPR [3]) [nM] | EC50 (hGLP-1R [4]) [nM] | EC50 (hGcgR) [nM] | EC50 (hGIPR [3]; [5]) [nM] | EC50 (hGLP-1R [4]; [5]) [nM] | EC50 (hGcgR; [5]) [nM] | EC50 (hGIPR [3]; [6]) [nM] | EC50 (hGLP-1R [4]; [6]) [nM] | EC50 (hGcgR; [6]) [nM] |
| --- | --- | --- | --- | --- | --- | --- | --- | --- | --- | --- | --- | --- |
| CC[C@H](C)[C@H](NC(=O)[C@H](Cc1ccccc1)NC(=O)[C@H](C)NC(=O)C(C)(C)NC(=O)[C@H](CCC(N)=O)NC(=O)[C@H](C)NC(=O)[C@H](CCCCNC(=O)COCCOCCNC(=O)CC[C@H](NC(=O)CCCCCCCCCCCCCCCCC(=O)O)C(=O)O)NC(=O)[C@H](CCCCN)NC(=O)[C@H](CC(=O)O)NC(=O)[C@H](CC(C)C)NC(=O)[C@](C)(CC(C)C)NC(=O)[C@@H](NC(=O)[C@H](CO)NC(=O)[C@H](Cc1ccc(O)cc1)NC(=O)[C@H](CC(=O)O)NC(=O)[C@H](CO)NC(=O)[C@@H](NC(=O)[C@](C)(Cc1ccccc1)NC(=O)[C@@H](NC(=O)CNC(=O)[C@H](CCC(N)=O)NC(=O)C(C)(C)NC(=O)[C@@H](N)Cc1ccc(O)cc1)[C@@H](C)O)[C@@H](C)O)[C@@H](C)CC)C(=O)N[C@@H](CCC(=O)O)C(=O)N[C@@H](Cc1ccc(O)cc1)C(=O)N[C@@H](CC(C)C)C(=O)N[C@@H](CCC(=O)O)C(=O)N[C@@H](CCC(=O)O)C(=O)NCC(=O)NCC(=O)N1CCC[C@H]1C(=O)N[C@@H](CO)C(=O)N[C@@H](CO)C(=O)NCC(=O)N[C@@H](C)C(=O)N1CCC[C@H]1C(=O)N1CCC[C@H]1C(=O)N1CCC[C@H]1C(=O)N[C@@H](CO)C(N)=O [Example 394] (H-Y[Aib]QGT[αMeF]TSDYSI[αMeL]LDKK([AEEA-γGlu-C18 diacid])AQ[Aib]AFIEYLEEGGPSSGAPPPS-NH2) | 7.22 | 33.2 | 1090 | 0.018 | 0.226 | 5.63 | – | – | – | – | – | – |
| H-Y[Aib]QGTFTSD[4Pal]SQ[αMeL]LDKK([γGlu-γGlu-C18 diacid])AQ[Aib]AFIE[αMeY]LLEGGPSSGAPPPSGSEE-NH2 [Example 945] | 42.5 | 555 | 2420 | – | – | – | 0.246 | 3.9 | 18 | – | – | – |
| Y[Aib]QGTFTSDYSI[αMeL]LDKQAAK([AEEA-AEEA-γGlu-C20 diacid])QFVEWLLAGGPSSGEPPPGEG-NH2 [Example 320] | 55.3 | 328 | 1170 | – | – | – | 0.274 | 2.58 | 6.87 | – | – | – |
| H-Y[Aib]QGTFTSD[4Pal]SQ[αMeL]LDKK([γGlu-γGlu-C18 diacid])AQ[αMe4Pal]AFIE[αMe4Pal]LIE[Aib]GPSSGEPPPSGE-NH2 [Example 1123] | 3.89 | 191 | 441 | – | – | – | 0.101 | 4.47 | 5.53 | – | – | – |
| H-Y[Aib]Q[dA]T[αMePhe(2-F)]TSD[4Pal]SI[αMeL]LD[Orn]K([AEEA-γGlu-C18 diacid])AQ[αMe4Pal]EFI[dE][αMeY]LVEGGPSSGAPPPSGS-NH2 [Example 1205] | 16.3 | 50 | 325 | – | – | – | – | – | – | 0.152 | 0.523 | 3.33 |
| CC[C@H](C)[C@H](NC(=O)[C@H](Cc1ccccc1)NC(=O)[C@H](C)NC(=O)C(C)(C)NC(=O)[C@H](CCC(N)=O)NC(=O)[C@H](C)NC(=O)[C@H](CCCCNC(=O)CC[C@H](NC(=O)CC[C@H](NC(=O)CCCCCCCCCCCCCCCCC(=O)O)C(=O)O)C(=O)O)NC(=O)[C@H](CCCCN)NC(=O)[C@H](CC(=O)O)NC(=O)[C@H](CC(C)C)NC(=O)[C@](C)(CC(C)C)NC(=O)[C@H](CCCN)NC(=O)[C@H](CO)NC(=O)[C@H](Cc1ccccc1)NC(=O)[C@H](CC(=O)O)NC(=O)[C@H](CO)NC(=O)[C@@H](NC(=O)[C@H](Cc1ccccc1)NC(=O)[C@@H](NC(=O)CNC(=O)[C@H](CCC(N)=O)NC(=O)C(C)(C)NC(=O)[C@@H](N)Cc1ccc(O)cc1)[C@@H](C)O)[C@@H](C)O)C(=O)N[C@@H](CCC(=O)O)C(=O)N[C@@H](Cc1ccc(O)cc1)C(=O)N[C@@H](CC(C)C)C(=O)N[C@@H](CC(C)C)C(=O)N[C@@H](CCC(=O)O)C(=O)NCC(=O)NCC(=O)N1CCC[C@H]1C(=O)N[C@@H](CO)C(=O)N[C@@H](CO)C(=O)NCC(=O)N[C@@H](C)C(=O)N1CCC[C@H]1C(=O)N1CCC[C@H]1C(=O)N1CCC[C@H]1C(=O)N[C@@H](CO)C(=O)NCC(=O)N[C@@H](CO)C(N)=O [Example 199] | 41.6 | 1060 | 1000 | – | – | – | 0.232 | 4.91 | 5.8 | – | – | – |
| H-Y[Aib]QGTFTSDFS[Orn][αMeL]LDKK([AEEA-γGlu-C18 diacid])AQ[Aib]AFIEYLLEGGPSSGAPPPGGQ-NH2 [Example 159] | 49.7 | 588 | 475 | – | – | – | 0.343 | 4.15 | 6.89 | – | – | – |
| H-Y[Aib]QGTFTSD[4Pal]SQ[αMeL]LD[Orn]K([γGlu-γGlu-C18 diacid])AQ[αMe4Pal]AFIEYLIE[dA]GPSSGEPPPSGS-NH2 [Example 1019] | 21.3 | 161 | 579 | – | – | – | 0.169 | 1.33 | 4.36 | – | – | – |
| H-Y[Aib]QGTFTSD[4Pal]SQ[αMeL]LDKK([Glu-Glu-γGlu-C18 diacid])AQ[αMe4Pal]AFIEYLIAGGPSSGAPPPSGEEE-NH2 [Example 1090] | 27.3 | 619 | 2010 | – | – | – | 0.272 | 5.44 | 15.6 | – | – | – |
| H-Y[Aib]QGTFTSDFS[Dab][αMeL]LDKK([AEEA-γGlu-C18 diacid])AQ[Aib]AFIEYLLE[Aib]GPSSGAPPPSGS-NH2 [Example 133] | 23.1 | 1180 | 642 | – | – | – | 0.15 | 3.6 | 1.64 | – | – | – |
| H-Y[Aib]QGTFTSD[4Pal]SQ[αMeL]LD[Orn]K([γGlu-γGlu-C18 diacid])AQ[αMe4Pal]AFIEYLIA[Aib]GPSSGEPPPSGSEE-NH2 [Example 1092] | 7.83 | 230 | 506 | – | – | – | 0.0648 | 1.33 | 3.45 | – | – | – |
| H-Y[Aib]QGTFTSD[4Pal]SQ[αMeL]LDKK([AEEA-γGlu-C18 diacid])AQ[αMe4Pal]AFIEYLIE[Aib]GPSSGAPPPSGSGE [Example 889] | 21.6 | 371 | 688 | – | – | – | 0.106 | 5.06 | 4.09 | – | – | – |
| H-Y[Aib]QGT[αMePhe(2-F)]TSD[4Pal][αMeS]I[αMeL]LD[Orn]K([AEEA-γGlu-C18 diacid])AA[Aib]EFI[dE][αMeY]LIEGGPSSGAPPPSGQ-OH [Example 722] | 0.953 | 27.2 | 170 | 0.01 | 0.252 | 1.71 | – | – | – | – | – | – |
| H-Y[Aib]QGT[αMePhe(2-F)]TSD[4Pal][αMeS]I[αMeL]LD[Orn]K([AEEA-γGlu-γGlu-C18 diacid])AQ[αMe4Pal]EFI[dE][αMeY]LIEGGPSSGAPPPSGGGE-NH2 [Example 1180] | 0.341 | 35.6 | 205 | – | – | – | 0.00602 | 0.445 | 3.16 | – | – | – |
| Y[Aib]QGT[αMePhe(2-F)]TSDYSKLLDKIAQK([AEEA-γGlu-C20 diacid])AFIQYLIEGGPSSGEPPPSEG-NH2 [Example 338] | 10.9 | 172 | 659 | – | – | – | 0.0733 | 1.22 | 4.02 | – | – | – |
| H-Y[Aib]QGTFTSD[4Pal]S[Orn][αMeL]LD[Orn]K([γGlu-γGlu-C18 diacid])AQ[αMe4Pal]QFIEYLIAGGPSSGAPPPSGSEE-NH2 [Example 1000] | 15.5 | 279 | 501 | – | – | – | 0.176 | 3.55 | 4.62 | – | – | – |
